Laboratory results published in the supplement of paper PMC11208160.

Experiment: recombinant UMI read abundance after kanamycin selection (control-corrected) (log10(CPM+1)); higher = more efficient recombination; extreme values may be limits of the assay; sequences stand for … in AGTGCAGAGAAAATCGGCCAGTTTTCTCTGCCTGCAGTCCGCATGCCGTGGGACCCCTTGGGTTCTAACCTGTTGCCTAGATTTATGCAGCGGACTGCCTTTCTCCCAAAGTGATAAACCGG…AGGTTGGTTTCACT; site = the 11-nt donor
How it was run: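 Sequenced counts of recombinant UMIs were turned into CPM, averaged across replicates and scaled with control-derived factors. The reported figure is log10(CPM+1). Those UMIs, each 12 nt long, tagged donor and donor-binding-loop pairs on a plasmid with a promoterless kanamycin gene, screened as a pool in Escherichia coli with IPTG (0.07 mM) plus kanamycin or without selection.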
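Note: IS621 bridge recombinase in Escherichia coli cells against a fixed T5 target plasmid.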

| Sequence | recombinant UMI read abundance (log10) |
| --- | --- |
| GTTTGCACATGGACCGGTTTTCCCGGTAATCCGTATTTGCA (site GTTTGCACTTG) | 0.292 |
| GTTTGGACATGGACCGGTTTTCCCGGTAATCCGTATTTGGA (site GTTTGGACTTC) | 0.0184 |
| TAAAACTCATGGACCGGTTTTCCCGGTAATCCGTATTTGGG (site TAAAACTCTCC) | 0.00919 |
| TAAAATACATGGACCGGTTTTCCCGGTAATCCGTATTTGCA (site TAAAATACTTG) | 0 |
| TAAAATACATGGACCGGTTTTCCCGGTAATCCGTATTTGCA (site TACAATACTTG) | 0.953 |
| TAAAATACATGGACCGGTTTTCCCGGTAATCCGTATTTGCA (site TAGAATACTTG) | 0 |
| TAAAATACATGGACCGGTTTTCCCGGTAATCCGTATTTGCA (site TATAATACTTG) | 0.614 |
| TAAACCGCATGGACCGGTTTTCCCGGTAATCCGTATTTGCG (site TAAACCGCTCG) | 1.29 |
| TAAAGACCATGGACCGGTTTTCCCGGTAATCCGTATTTGTA (site TAAAGACCTTA) | 0.299 |
| TAAAGACCATGGACCGGTTTTCCCGGTAATCCGTATTTGTA (site TAAAGCCCTTA) | 0.624 |
| TAAAGACCATGGACCGGTTTTCCCGGTAATCCGTATTTGTA (site TAAAGGCCTTA) | 0.257 |
| TAAAGACCATGGACCGGTTTTCCCGGTAATCCGTATTTGTA (site TAAAGTCCTTA) | 0.166 |
| TAAAGAGCATGGACCGGTTTTCCCGGTAATCCGTATTTGGG (site TAAAGAGCTCC) | 0.356 |
| TAAAGAGCATGGACCGGTTTTCCCGGTAATCCGTATTTGGG (site TAACGAGCTCC) | 0.0368 |
| TAAAGAGCATGGACCGGTTTTCCCGGTAATCCGTATTTGGG (site TAAGGAGCTCC) | 0.0278 |
| TAAAGAGCATGGACCGGTTTTCCCGGTAATCCGTATTTGGG (site TAATGAGCTCC) | 0.00709 |
| TAAAGCTCATGGACCGGTTTTCCCGGTAATCCGTATTTGTT (site TAAAGCTCTAA) | 1.48 |
| TAAAGTCCATGGACCGGTTTTCCCGGTAATCCGTATTTGGA (site TAAAGTCCTTA) | 0.0112 |
| TAAAGTCCATGGACCGGTTTTCCCGGTAATCCGTATTTGGA (site TAAAGTCCTTC) | 0.231 |
| TAAAGTCCATGGACCGGTTTTCCCGGTAATCCGTATTTGGA (site TAAAGTCCTTG) | 0 |
| TAAAGTCCATGGACCGGTTTTCCCGGTAATCCGTATTTGGA (site TAAAGTCCTTT) | 0.978 |
| TAAAGTCCATGGACCGGTTTTCCCGGTAATCCGTATTTGTC (site TAAAGTCCTAA) | 0.0955 |
| TAAAGTCCATGGACCGGTTTTCCCGGTAATCCGTATTTGTC (site TAAAGTCCTCA) | 0.00821 |
| TAAAGTCCATGGACCGGTTTTCCCGGTAATCCGTATTTGTC (site TAAAGTCCTGA) | 0.327 |
| TAAAGTCCATGGACCGGTTTTCCCGGTAATCCGTATTTGTC (site TAAAGTCCTTA) | 0.00692 |

| Sequence | recombinant UMI read abundance (log10) |
| --- | --- |
| TAAAGTCCATGGACCGGTTTTCCCGGTAATCCGTATTTGTT (site TAAAGTCCTAA) | 0.293 |
| TAAAGTCCATGGACCGGTTTTCCCGGTAATCCGTATTTGTT (site TAAAGTCCTCA) | 0.0132 |
| TAAAGTCCATGGACCGGTTTTCCCGGTAATCCGTATTTGTT (site TAAAGTCCTGA) | 0 |
| TAAAGTCCATGGACCGGTTTTCCCGGTAATCCGTATTTGTT (site TAAAGTCCTTA) | 0 |
| TAAAGTTCATGGACCGGTTTTCCCGGTAATCCGTATTTGTA (site TAAAGTACTTA) | 0.0179 |
| TAAAGTTCATGGACCGGTTTTCCCGGTAATCCGTATTTGTA (site TAAAGTCCTTA) | 0.153 |
| TAAAGTTCATGGACCGGTTTTCCCGGTAATCCGTATTTGTA (site TAAAGTGCTTA) | 0.00586 |
| TAAAGTTCATGGACCGGTTTTCCCGGTAATCCGTATTTGTA (site TAAAGTTCTTA) | 1.59 |
| TAAATAACATGGACCGGTTTTCCCGGTAATCCGTATTTGCT (site TAAATAACTAG) | 0 |
| TAAATACCATGGACCGGTTTTCCCGGTAATCCGTATTTGCG (site TAAATACCTCG) | 0 |
| TAAATGCCATGGACCGGTTTTCCCGGTAATCCGTATTTGGA (site TAAATGCCTTC) | 0.2 |
| TAACACGCATGGACCGGTTTTCCCGGTAATCCGTATTTGAG (site TAACACGCTCT) | 1.48 |
| TAACAGACATGGACCGGTTTTCCCGGTAATCCGTATTTGGT (site TAACAGACTAC) | 0.99 |
| TAACATTCATGGACCGGTTTTCCCGGTAATCCGTATTTGGG (site TAACATTCTCC) | 0.809 |
| TAACCGGCATGGACCGGTTTTCCCGGTAATCCGTATTTGGT (site TAACCGGCTAC) | 0.35 |
| TAACGAACATGGACCGGTTTTCCCGGTAATCCGTATTTGAC (site TAACGAACTGT) | 2.86 |
| TAACGGCCATGGACCGGTTTTCCCGGTAATCCGTATTTGAA (site TAACGGCCTTT) | 0.00367 |
| TAACTACCATGGACCGGTTTTCCCGGTAATCCGTATTTGTT (site TAACTACCTAA) | 0.00587 |
| TAACTAGCATGGACCGGTTTTCCCGGTAATCCGTATTTGAA (site TAACTAGCTTT) | 1.57 |
| TAACTAGCATGGACCGGTTTTCCCGGTAATCCGTATTTGAA (site TACCTAGCTTT) | 0.34 |
| TAACTAGCATGGACCGGTTTTCCCGGTAATCCGTATTTGAA (site TAGCTAGCTTT) | 0.00713 |
| TAACTAGCATGGACCGGTTTTCCCGGTAATCCGTATTTGAA (site TATCTAGCTTT) | 0 |
| TAACTTACATGGACCGGTTTTCCCGGTAATCCGTATTTGAT (site TAACTTACTAT) | 0.731 |
| TAAGATTCATGGACCGGTTTTCCCGGTAATCCGTATTTGTT (site AAAGATTCTAA) | 0 |
| TAAGATTCATGGACCGGTTTTCCCGGTAATCCGTATTTGTT (site CAAGATTCTAA) | 1.43 |

| Sequence | recombinant UMI read abundance (log10) |
| --- | --- |
| TAAGATTCATGGACCGGTTTTCCCGGTAATCCGTATTTGTT (site GAAGATTCTAA) | 0 |
| TAAGATTCATGGACCGGTTTTCCCGGTAATCCGTATTTGTT (site TAAGATTCTAA) | 2.02 |
| TAAGCAGCATGGACCGGTTTTCCCGGTAATCCGTATTTGGC (site TAAGCAGCTGC) | 2.92 |
| TAAGCTGCATGGACCGGTTTTCCCGGTAATCCGTATTTGTG (site TAAGCTGCTCA) | 0.65 |
| TAAGCTGCATGGACCGGTTTTCCCGGTAATCCGTATTTGTG (site TCAGCTGCTCA) | 0.00238 |
| TAAGCTGCATGGACCGGTTTTCCCGGTAATCCGTATTTGTG (site TGAGCTGCTCA) | 0.0127 |
| TAAGCTGCATGGACCGGTTTTCCCGGTAATCCGTATTTGTG (site TTAGCTGCTCA) | 0.00901 |
| TAAGGGCCATGGACCGGTTTTCCCGGTAATCCGTATTTGAG (site TAAGGGCCTCT) | 0.221 |
| TAAGTATCATGGACCGGTTTTCCCGGTAATCCGTATTTGAC (site CTAGTATCTGT) | 1.88 |
| TAAGTATCATGGACCGGTTTTCCCGGTAATCCGTATTTGAC (site TAAGTATCTGT) | 3.03 |
| TAATCTACATGGACCGGTTTTCCCGGTAATCCGTATTTGAG (site TAATCTACTCT) | 0.521 |
| TAATGAACATGGACCGGTTTTCCCGGTAATCCGTATTTGGG (site TAATGAACTCC) | 0.00333 |
| TAATGAACATGGACCGGTTTTCCCGGTAATCCGTATTTGGG (site TAATGACCTCC) | 0.0112 |
| TAATGAACATGGACCGGTTTTCCCGGTAATCCGTATTTGGG (site TAATGAGCTCC) | 0.0277 |
| TAATGAACATGGACCGGTTTTCCCGGTAATCCGTATTTGGG (site TAATGATCTCC) | 0.399 |
| TAATGAGCATGGACCGGTTTTCCCGGTAATCCGTATTTGGA (site TAATGAGCTAC) | 0.0122 |
| TAATGAGCATGGACCGGTTTTCCCGGTAATCCGTATTTGGA (site TAATGAGCTCC) | 0.0122 |
| TAATGAGCATGGACCGGTTTTCCCGGTAATCCGTATTTGGA (site TAATGAGCTGC) | 0 |
| TAATGAGCATGGACCGGTTTTCCCGGTAATCCGTATTTGGA (site TAATGAGCTTC) | 0.729 |
| TAATGCGCATGGACCGGTTTTCCCGGTAATCCGTATTTGGG (site TAATGAGCTCC) | 0.0175 |
| TAATGCGCATGGACCGGTTTTCCCGGTAATCCGTATTTGGG (site TAATGCGCTCC) | 0 |
| TAATGCGCATGGACCGGTTTTCCCGGTAATCCGTATTTGGG (site TAATGGGCTCC) | 0.0249 |
| TAATGCGCATGGACCGGTTTTCCCGGTAATCCGTATTTGGG (site TAATGTGCTCC) | 0.00404 |
| TAATGGCCATGGACCGGTTTTCCCGGTAATCCGTATTTGCA (site AAATGGCCTTG) | 0.00563 |
| TAATGGCCATGGACCGGTTTTCCCGGTAATCCGTATTTGCA (site CAATGGCCTTG) | 0.089 |
